Data published in ChEMBL document CHEMBL1122200, “Novel opiates and antagonists. 5. 7-Carbethoxy-N-(cycloalkylmethyl)-3-hydroxymorphinan-6-ones and -isomorphinan-6-ones” (1982).

Columns and labels:
Mus musculus = assay: Analgesic activity by mouse writhing test after subcutaneous injection.; assay type: functional
Rattus norvegicus = assay: Narcotic antagonist activity was measured by rat tail flick procedure after the drug was injected intraperitoneally; assay type: functional
[1] = Mus musculus, sc, read-out: ED50

## CCOC(=O)[C@@H]1CC2C3Cc4ccc(OC)cc4C2(CCN3CC2CCC2)CC1=O (some centres not stated)
Mus musculus; [1]
  ED50: > 10 mg/kg
Rattus norvegicus
  AD50: >3 mg/kg

## CC(C)(O)[C@@H]1CC2C3Cc4ccc(O)cc4C2(CCN3CC2CC2)C[C@@H]1O (some centres not stated)
Mus musculus; [1]
  ED50: 6.9 mg/kg
Rattus norvegicus
  AD50: >10 mg/kg

## CCOC(=O)[C@H]1CC2C3Cc4ccc(OC)cc4C2(CCN3C)CC1=O (some centres not stated)
Mus musculus; [1]
  ED50: > 10 mg/kg

## CCOC(=O)[C@H]1CC2C3Cc4ccc(OC)cc4C2(CCN3CC2CC2)CC1=O (some centres not stated)
Mus musculus; [1]
  ED50: > 10 mg/kg
Rattus norvegicus
  AD50: >10 mg/kg

## CCOC(=O)[C@@H]1CC2C3Cc4ccc(O)cc4C2(CCN3CC2CC2)CC1=O (some centres not stated)
Mus musculus; [1]
  ED50: 4.9 mg/kg

## CCOC(=O)[C@@H]1CC2C3Cc4ccc(O)cc4C2(CCN3CC2CCC2)CC1=O (some centres not stated)
Rattus norvegicus
  AD50: >10 mg/kg

## CCOC(=O)[C@H]1CC2C3Cc4ccc(O)cc4C2(CCN3C)CC1=O (some centres not stated)
Mus musculus; [1]
  ED50: 0.6 mg/kg

## CN1CC[C@]23c4c5ccc(O)c4O[C@H]2[C@@H](O)C=C[C@H]3[C@H]1C5.CN1CC[C@]23c4c5ccc(O)c4O[C@H]2[C@@H](O)C=C[C@H]3[C@H]1C5.O=S(=O)(O)O
Mus musculus; [1]
  ED50: 0.8 mg/kg

## CN1CCC23CC(=O)CC[C@H]2C1Cc1ccc(O)cc13 (some centres not stated)
Mus musculus; [1]
  ED50: 0.15 mg/kg

## CN1CCC23CC(=O)CC[C@@H]2C1Cc1ccc(O)cc13 (some centres not stated)
Mus musculus; [1]
  ED50: 0.23 mg/kg

## CCOC(=O)[C@@H]1CC2C3Cc4ccc(OC)cc4C2(CCN3CC2CC2)CC1=O (some centres not stated)
Mus musculus; [1]
  ED50: > 10 mg/kg
Rattus norvegicus
  AD50: >3 mg/kg

## CCOC(=O)[C@@H]1CC2C3Cc4ccc(O)cc4C2(CCN3C)CC1=O (some centres not stated)
Mus musculus; [1]
  ED50: 0.72 mg/kg

## CCOC(=O)[C@@H]1CC2C3Cc4ccc(OC)cc4C2(CCN3C)CC1=O (some centres not stated)
Mus musculus; [1]
  ED50: 4.6 mg/kg

## COc1ccc2c(c1)C13CCN(C)C(C2)[C@@H]1CCC(=O)C3 (some centres not stated)
Mus musculus; [1]
  ED50: 0.49 mg/kg

## CC(C)(O)[C@H]1CC2C3Cc4ccc(O)cc4C2(CCN3CC2CC2)C[C@H]1O (some centres not stated)
Mus musculus; [1]
  ED50: > 10 mg/kg
Rattus norvegicus
  AD50: >10 mg/kg

## COc1ccc2c(c1)C13CCN(C)C(C2)[C@H]1CCC(=O)C3 (some centres not stated)
Mus musculus; [1]
  ED50: 1.58 mg/kg

## O=C1CCC2C3Cc4ccc(O)cc4C2(CCN3CC2CCC2)C1 (cis isomer)
Mus musculus; [1]
  ED50: 0.017 mg/kg
Rattus norvegicus
  AD50: >10 mg/kg

## COc1ccc2c(c1)C13CCN(CC4CC4)C(C2)C1CCC(=O)C3 (stereo in doubt; 5Cc)
Mus musculus
  ED50: 0.24 mg/kg
Rattus norvegicus
  AD50: >3 mg/kg

## COc1ccc2c(c1)C13CCN(CC4CCC4)C(C2)C1CCC(=O)C3 (stereo in doubt; 5Cd)
Mus musculus
  ED50: 0.22 mg/kg
Rattus norvegicus
  AD50: >10 mg/kg

## O=C1CCC2C3Cc4ccc(O)cc4C2(CCN3CC2CC2)C1 (stereo in doubt; 9Ca)
Mus musculus
  ED50: 1.02 mg/kg
Rattus norvegicus
  AD50: 2.3 mg/kg

## COc1ccc2c(c1)C13CCN(CC4CC4)C(C2)C1CCC(=O)C3 (trans isomer)
Mus musculus
  ED50: >10 mg/kg
Rattus norvegicus
  AD50: 1.3 mg/kg

## COc1ccc2c(c1)C13CCN(CC4CCC4)C(C2)C1CCC(=O)C3 (trans isomer)
Mus musculus
  ED50: 6.9 mg/kg

## O=C1CCC2C3Cc4ccc(O)cc4C2(CCN3CC2CC2)C1 (trans isomer)
Mus musculus
  ED50: >10 mg/kg
Rattus norvegicus
  AD50: 0.78 mg/kg

## CC(C)=CCN1CC[C@]2(C)c3cc(O)ccc3C[C@H]1[C@H]2C [(+)-PENTAZOCINE]
Mus musculus; [1]
  ED50: 3.7 mg/kg
Rattus norvegicus
  AD50: 10.4 mg/kg

## C=CCN1CC[C@]23c4c5ccc(O)c4O[C@H]2[C@@H](O)C=C[C@H]3[C@H]1C5 [NALORPHINE]
Rattus norvegicus
  AD50: 0.86 mg/kg
